Active and inactive are the calls of the source.

The record followed here is ChEMBL document CHEMBL1201862, “PubChem BioAssay data set” (2004).

System in one experiment: not listed separately
Briefly: reduction of Shn3 3'UTR-driven luciferase in osteoblasts – cell-based, Clone20 osteoblasts, firefly luciferase, cherry-picked, dose response (AID 624132).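 Note: firefly luciferase luminescence from reporter carrying the Shn3 3'UTR in osteoblasts.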 The format is functional.
Details: not given
By AC50 is commonly meant the midpoint of the concentration-response curve, whichever way the signal moves. With `Cc1ccc(CNc2nc(NCC3CC3)nc3ccsc23)c(C)c1`, the AC50 was 3.95 µM (active).

Another experiment concerns P388/ADR. Briefly: cells. Format: functional. The conditions noted are these: Mus musculus.
As usually defined, the GI50 is the concentration giving 50% growth inhibition. On to `CC(=O)C(=O)NC1/C=C(C)\C=C/C(O)C/C=C(C)\C=C/C(O)CC2OC(=O)C1(C)C(=O)C2C` (stereo not drawn), for which the GI50 is 28.4 µM (inactive).

For `CCN(CC)CCCOC(=O)/C=C/c1c(C)[nH]c(=O)[nH]c1=O`, the GI50 is 426 µM (inactive).

In the case of `C=C1CC(OC)(C(OC)C(=O)N(C)[C@H]2OCO[C@H]3C2O[C@H](C[C@@H](COC)OC)C(C)(C)C3OC)O[C@H](C)[C@@H]1C` (stereo partly drawn), the GI50 was 5.58 µM (inactive). The same measure, in the same setting: the value for `CC(C)[C@](O)(C(=O)OCC1=CC[N+]2([O-])CC[C@@H](O)[C@@H]12)[C@H](C)O` (stereo partly drawn) [INDICINE N-OXIDE] was > 8990 µM (inactive). Same read-out and setting: the same measure for `COc1cc(O)c(Cc2ccccc2O)c(O)c1C(=O)CCc1ccccc1` [UVARETIN]: 5.38 µM (inactive).

System in another experiment: not listed separately
Briefly: loss of viability in HepG2 cells – cell-based, CellTiter-Glo, cherry-picked, cytotoxicity control for Shn3 inhibitor project, dose response (AID 624134). Format: functional.
Details: not given
On the technique in general: In ATP-based viability assays light output follows the ATP content of the culture.
On to `Cc1ccc(CNc2nc(NCC3CC3)nc3ccsc23)c(C)c1`, for which the AC50 is 40.4 µM (active).

System in the next experiment: not listed separately
Briefly: non-specific 3'UTR reporter inhibition in Clone20-Shn3RL – cell-based, Renilla luciferase, cherry-picked, counter-screen for Shn3 inhibitor project, dose response (AID 624133). Format: functional.
Details: not given
In general terms: A counterscreen serves to expose hits that act by an unwanted route or on another target.
`Cc1ccc(CNc2nc(NCC3CC3)nc3ccsc23)c(C)c1`: the AC50 is 6.26 µM (active).

A further experiment concerns SN12K1. Briefly: cells. Format: functional. To be noted: Homo sapiens, SN12K1.
With `CC(=O)C(=O)NC1/C=C(C)\C=C/C(O)C/C=C(C)\C=C/C(O)CC2OC(=O)C1(C)C(=O)C2C` (stereo not drawn), the GI50 was > 100 µM (inactive).

For the molecule `CCN(CC)CCCOC(=O)/C=C/c1c(C)[nH]c(=O)[nH]c1=O`, the GI50 was > 625 µM (inactive). The same measure, in the same setting: the same measure for `C=C1CC(OC)(C(OC)C(=O)N(C)[C@H]2OCO[C@H]3C2O[C@H](C[C@@H](COC)OC)C(C)(C)C3OC)O[C@H](C)[C@@H]1C` (stereo partly drawn): 10.9 µM (inactive). On the same count and under the same terms, the same measure for `CC(C)[C@](O)(C(=O)OCC1=CC[N+]2([O-])CC[C@@H](O)[C@@H]12)[C@H](C)O` (stereo partly drawn) [INDICINE N-OXIDE]: > 10000 µM (inactive); for `COc1cc(O)c(Cc2ccccc2O)c(O)c1C(=O)CCc1ccccc1` [UVARETIN]: 5.55 µM (inactive).

A further experiment concerns P388. Briefly: cells. The format is functional. To be noted: Mus musculus, P388.
In the case of `CC(=O)C(=O)NC1/C=C(C)\C=C/C(O)C/C=C(C)\C=C/C(O)CC2OC(=O)C1(C)C(=O)C2C` (stereo not drawn), the GI50 is 10.4 µM (inactive). The same measure, in the same setting: the same measure for `CCN(CC)CCCOC(=O)/C=C/c1c(C)[nH]c(=O)[nH]c1=O`: > 625 µM (inactive); for `C=C1CC(OC)(C(OC)C(=O)N(C)[C@H]2OCO[C@H]3C2O[C@H](C[C@@H](COC)OC)C(C)(C)C3OC)O[C@H](C)[C@@H]1C` (stereo partly drawn): 3.58 µM (inactive). On the same count and under the same terms, the same measure for `CC(C)[C@](O)(C(=O)OCC1=CC[N+]2([O-])CC[C@@H](O)[C@@H]12)[C@H](C)O` (stereo partly drawn) [INDICINE N-OXIDE]: 6490 µM (inactive); for `COc1cc(O)c(Cc2ccccc2O)c(O)c1C(=O)CCc1ccccc1` [UVARETIN]: 4.37 µM (inactive).

For the next experiment, the target named is T1, Protein skinhead-1 (Caenorhabditis elegans, UniProt P34707).
T1 sequence (P34707 whole entry): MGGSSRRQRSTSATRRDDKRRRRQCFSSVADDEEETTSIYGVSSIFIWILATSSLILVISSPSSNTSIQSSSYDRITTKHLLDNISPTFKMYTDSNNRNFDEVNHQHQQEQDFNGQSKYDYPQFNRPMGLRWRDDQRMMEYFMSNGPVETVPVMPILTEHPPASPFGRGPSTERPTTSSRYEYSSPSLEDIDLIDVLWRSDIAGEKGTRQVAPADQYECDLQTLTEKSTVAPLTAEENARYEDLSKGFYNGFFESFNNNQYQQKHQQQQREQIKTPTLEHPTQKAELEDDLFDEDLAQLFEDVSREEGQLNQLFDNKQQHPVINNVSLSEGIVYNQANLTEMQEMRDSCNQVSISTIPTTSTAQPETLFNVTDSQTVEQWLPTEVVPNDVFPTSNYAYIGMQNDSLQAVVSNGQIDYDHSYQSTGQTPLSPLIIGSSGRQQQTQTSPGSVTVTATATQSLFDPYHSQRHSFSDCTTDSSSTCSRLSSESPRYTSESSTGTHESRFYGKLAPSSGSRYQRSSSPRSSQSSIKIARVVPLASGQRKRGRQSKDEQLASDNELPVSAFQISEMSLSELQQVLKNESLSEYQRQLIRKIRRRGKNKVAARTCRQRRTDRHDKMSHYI
Experiment: not given
Details: not given
The format is functional.
Usually IC50 stands for the concentration needed to halve the response being measured. Consider `COc1ccc(N2CCN(C(=O)c3cc4c(-c5cccc(OC)c5)nn(C)c4s3)CC2)cc1`, for which the IC50 is > 100 µM (inactive). On to `CCOC(=O)C(Oc1ccc2c(-c3ccc(OC)cc3)cc(=O)oc2c1C)c1ccccc1` (stereo not drawn), for which the IC50 is > 100 µM (inactive). `Fc1ccc(CSc2nnc(-c3cccs3)o2)cc1`: the IC50 was 27.3 µM (active). Same read-out and setting: the same measure for `Cc1ccc(-c2nc(-c3ccncc3)no2)cc1`: 13.9 µM (active); for `Cc1cc(N(CCCl)CCCl)ccc1C=Cc1ccncn1`: > 100 µM (inactive); for `COc1ccccc1-c1nnc(-c2ccc(F)cc2)o1`: 90.4 µM (inactive).

The target in the next experiment is T2, Rac GTPase-activating protein 1 (Homo sapiens, UniProt Q9H0H5).
T2 sequence (Q9H0H5 whole entry): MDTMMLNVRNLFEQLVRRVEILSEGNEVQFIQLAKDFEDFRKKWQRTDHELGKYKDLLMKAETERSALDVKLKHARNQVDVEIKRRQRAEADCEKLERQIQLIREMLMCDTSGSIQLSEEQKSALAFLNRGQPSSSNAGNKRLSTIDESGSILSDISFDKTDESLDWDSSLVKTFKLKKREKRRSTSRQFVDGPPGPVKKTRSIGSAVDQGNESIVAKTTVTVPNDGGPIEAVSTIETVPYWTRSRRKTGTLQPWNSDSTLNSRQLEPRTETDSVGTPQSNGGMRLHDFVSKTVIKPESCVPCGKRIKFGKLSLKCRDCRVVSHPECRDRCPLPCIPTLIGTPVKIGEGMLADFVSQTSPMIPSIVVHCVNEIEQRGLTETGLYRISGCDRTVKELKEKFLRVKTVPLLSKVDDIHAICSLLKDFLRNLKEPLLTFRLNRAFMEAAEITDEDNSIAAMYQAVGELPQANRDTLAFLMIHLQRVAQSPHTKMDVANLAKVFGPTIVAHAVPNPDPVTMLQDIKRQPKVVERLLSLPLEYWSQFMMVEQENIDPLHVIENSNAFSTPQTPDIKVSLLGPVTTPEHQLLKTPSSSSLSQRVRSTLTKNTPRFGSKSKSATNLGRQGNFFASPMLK
Briefly: blockers of MgcRacGAP-driven Rac1 GTP hydrolysis – biochemical, ADP Hunter fluorescence, primary and confirmatory, confirmation (AID 624330). Format: functional.
Details: not given
With `Cc1nc(Cc2nnc(SCC(=O)N3CCN(c4ccc(O)cc4)CC3)o2)cs1`, the IC50 is 30 µM (active). Still for that read-out and setting: the same measure for `CSc1ccc(CN2CCC(C(=O)NCc3ccc(C)cc3)CC2)cc1`: 108 µM (active); for `Cc1ccccc1OCCn1c(S)nc2c(N)ncnc21`: 41.6 µM (active); for `COc1cc(/C=C/C(=O)OCC(=O)Nc2ccc3c(c2)OCO3)ccc1O`: 48.2 µM (active).
